“Also recorded” adds a separate entry of the source.
Assays:
MPS-IIIA mice [1] = test: Anti-LC3 immunofluorescence on brain sections; assay type: in vivo, mouse
From the text: FIG. 9. Panels A and B, show anti-LC3 immunofluorescence on brain sagittal sections from the four experimental groups of mice. The number of LC3-positive dots (either total or large dots) were quantified in 15 different fields from the cortical regions for each group. Three mice for each experimental group. […] Panel C) Immunofluorescence analysis of colocalization in MPS-IIIA mice brain sagittal sections between LC3 (green) and Lamp1 (red), LC3 (green) and Neurofilament (red). […] Panel E) Immunohistochemistry analysis of anti-Ubiquitin K63 signal on brain sagittal sections derived from the four experimental groups of mice. Images from cerebral cortex shown. UbK63 immuno-reactivity quantified in 10 different fields from the cortical regions from each group.
(§1) Medial sagittal sections of frozen brain tissue were cut on a cryostat at either 12 or 40 μm of thickness, permeabilized (PBS, 0.2% Tween[…]20, and 10% fetal bovine serum), and stained with appropriate primary and secondary antibodies overnight at […] Sections were analyzed by Confocal microscope Zeiss LSM 710 using either 63× or 40× objectives. Stained sections were mounted with Vectashield (Vector Laboratories, CA, USA).
In healthy neurons autophagosomes are efficiently cleared upon axonal retrograde transport and lysosomal encountering and, therefore, are rarely found in neurites or cell bodies unless lysosomal-dependent autophagosome clearance is disrupted (Boland et al. (2008) J. Neurosci. 28: 6926-6937; Maday et al. (2012) J. Cell Biol. 196: 407-417; Lie & Nixon (2019) Neurobiol. Dis. 122: 94-105).

WT mice [2] = test: Lysosomal autophagic axis in WT mice; assay type: in vivo, mouse; conditions: WT mice upon treatment
From the text: Therefore, the present data support a model in which progressive amyloid build-up into lysosomes impairs autophagic flux. Mechanisms underlying such effect involve the negative impact of amyloids on autophagosome clearance through the prevention of lysosome encountering. […] This might be a consequence of the relief of the autophagy block and/or might be a result of a more specific effect of CLR01 on lysosomal-mediated signaling pathways inducing ALP, signaling that may be impaired by amyloid deposition in MPS-IIIA.

WT mice [3] = conditions: daily s.c. injection for 4.5 months
[4] = systemic administration; cited from earlier work
WT mice [5] = test: Anti-LC3 immunofluorescence on brain sections of WT mice; assay type: in vivo, mouse; conditions: CLR01-treated WT mice
From the text: (§2) FIG. 9. Panels A and B, show anti-LC3 immunofluorescence on brain sagittal sections from the four experimental groups of mice. The number of LC3-positive dots (either total or large dots) were quantified in 15 different fields from the cortical regions for each group. Three mice for each experimental group. […] Panel C) Immunofluorescence analysis of colocalization in MPS-IIIA mice brain sagittal sections between LC3 (green) and Lamp1 (red), LC3 (green) and Neurofilament (red). […] Images from cerebral cortex shown.
as §1
(§3) To evaluate whether the normalization of the lysosomal compartment mediated by amyloid deposition inhibition was also associated to a functional recovery of lysosomes, the ALP was analyzed in MPS-IIIA mouse brain upon CLR01 treatment. […]

MPS-IIIA mice [6] = test: IHC anti-LAMP1 on brain sections; assay type: in vivo, mouse; conditions: daily s.c. injection for 4.5 months
Procedure: (§4) FIG. 8. […] Images from cerebral cortex shown. […] Three mice for each experiment group.
(§5) For paraffin embedding, mice brain were fixed in 4% paraformaldehyde (PFA) overnight at 4° C., then mice brain were dehydrated in a graded series of ethanol, cleared with xylene, and infiltrated with paraffin. Paraffin-embedded blocks were cut on a microtome in 6-μm sagittal sections. Immunohistochemistry experiments were […] performed using the Universal Vectastain Elite ABC HRP Kit (PK6200, Vector Laboratories). For all immunostainings were used sagittal sections, rinsed in PBS1×-Triton 0.1% and treated with 1% H2O2 for 30 min to quench endogenous peroxidase activity. At this point the sections were exposed at PBS or at Proteinase K digestion (50 μg/ml) for 2 minutes at 37° C. to detect protease resistant structures. After this point the sections were blocked for 1 hour in PBS1×-TritonX-100 0.1%-2% Horse Serum and then incubated with specific antibodies overnight at […], followed by incubation in biotinylated universal antibody (Vector Laboratories) for 90 minutes at room temperature and in ABC reagent (Vector Laboratories) for 45 minutes at room temperature. Sections were dehydrated and then mounted with Leica CV ULTRA (Leica micro systems). Visualization was performed using 3,3-diaminobenzidine tetrahydrochloride (DAB Vector Laboratories). […]

WT mice [7] = conditions: daily s.c. injection for 4.5 months; remark: listed apart in the source
From the text: Panel C) IHC anti-Lamp-on brain sagittal sections derived from the four experimental groups of mice (WT saline-injected, WT CLR01-injected, MPS-IIIA-saline injected and MPS-IIIA CLR01-injected). Images from cerebral cortex shown. Lamp 1 immuno-reactivity quantified in 10 different fields from the cortical regions for each group. Three mice for each experimental group. ***p<0.001 vs WT; ###P<0.001 vs MPS-IIIA+saline, One-way ANOVA analysis with Bonferroni's multiple comparison test. Panels D and E) TEM analysis to quantify the number/size of lysosomes in the four experimental group of mice. Three mice for each experiment group. Representative TEM images were shown on the left panel. *, **, *** p<0.05, 0.01, 0.001 vs WT; ##, ###, P<0.01, 0.001 vs MPS-IIIA+saline, One-way ANOVA analysis with Bonferroni's multiple comparison test.

MPS-IIIA mice [8] = conditions: MPS-IIIA mouse brain, daily s.c. injection for 4.5 months, 9 months of age
From the text: Panel B) TEM analysis of synaptic vesicles number. […] The arrows indicate the synaptic cleft. ***p<0.0001 vs WT+Saline; ###p<0.0001 vs MPS-IIIA+saline, One-way ANOVA analysis with Bonferroni's multiple comparison test.

WT mice [9] = test: IHC anti-LAMP1 on brain sections of WT mice; assay type: in vivo, mouse; conditions: daily s.c. injection for 4.5 months
Procedure: as §4, §5

MPS-IIIA mice [10] = test: IHC anti-UbK63 on brain sections; assay type: in vivo, mouse; conditions: CLR01-treated MPS-IIIA brain vs control MPS-IIIA brain
From the text: as §2
For paraffin embedding, mice brain were fixed in 4% paraformaldehyde (PFA) overnight at 4° C., then mice brain were dehydrated in a graded series of ethanol, cleared with xylene, and infiltrated with paraffin. Paraffin-embedded blocks were cut on a microtome in 6-μm sagittal sections. Immunohistochemistry experiments were […] performed using the Universal Vectastain Elite ABC HRP Kit (PK6200, Vector Laboratories). For all immunostainings were used sagittal sections, rinsed in PBS1×-Triton 0.1% and treated with 1% H2O2 for 30 min to quench endogenous peroxidase activity. […]
as §3

MPS-IIIA mice [11] = test: GFAP and IBA1 staining of neuro-inflammation in brain; assay type: in vivo, mouse
[12] = systemic administration, mice; cited from earlier work
MPS-IIIA mice [13] = conditions: mouse, in vivo, sc, 1 mg/kg/day
MPS-IIIA mice [14] = test: Western blot of LC3-II and p62 on brain lysates; assay type: in vivo, mouse
[15] = tested on: mouse models of synucleinopathies and Alzheimer's disease; conditions: cited from earlier work
MPS-IIIA mice [16] = test: Thioflavin S staining of amyloid deposits in brain sections; assay type: in vivo, mouse
From the text: CLR01 was produced in the facility of Professor Gal Bitan (Associate Professor of Neurology, Department of Neurology, University of California, UCLA). […] […] CLR01 dosage has been chosen on the basis of safety and pharmacological characterization of CLR01 in mice (Attar et al. (2014) BMC Parmacol. & Toxicol 15: 23).
After euthanization, mouse brain was collected from each experimental group and perfused with phosphate-buffered saline (PBS pH 7,4) to completely clear blood from tissue. The brains were divided in two equal parts: half of each was frozen in dry ice and used for biochemical analysis. The other halves were fixed in 4% (w/v) paraformaldehyde in PBS and embedded in Optimal cutting temperature compound (OCT compound) or paraffin.
For thioflavin S histochemistry were used cryosections (12 μm), then sections were incubated in 0.1% thioflavin S for 10 min. Slides were immersed to 80% ethanol solution for 5 min, and mounted using FLUORSAVE™ reagent. Positive staining was observed using a Leica DM5500 scan.
The inventors therefore tested whether CLR01 (FIG. 4, panel A), was effective in targeting and destroying amyloid aggregation in MPS IIIA mice. […] Both treatments ended at 7 months of age, when the neuropathological phenotype becomes evident in MPS-IIIA mice (Lau et al. (2008) Behav. Brain Res. 191: 130-136; Sambri et al. (2016) EMBO Mol. Med. e201606965; Sorrentino et al. (2013) EMBO Mol. Med. 5: 675-690; Wilkinson et al. (2012) PloS one, 7: e35787). The two different treatment regimens allowed evaluation of the potential therapeutic effect of CLR01 resulting from either prevention or disassembly of amyloid aggregation.
The potential therapeutic efficacy of CLR01 in MPS-IIIA was further tested by treating MPS-IIIA mice at 4.5 months of age (before massive amyloid aggregation takes place) with daily sub-cutaneous injection of CLR01 over a period of 4.5 months.

MPS-IIIA mice [17] = test: TEM analysis of number/size of lysosomes; assay type: in vivo, mouse
From the text: as §4

MPS-IIIA mice [18] = test: Contextual fear conditioning test; assay type: in vivo, mouse; conditions: daily s.c. injection for 4.5 months, 9 months of age
From the text: FIG. 7. […] Panel B) TEM analysis of synaptic vesicles number. […] Panel C) Contextual fear condition task.

[19] = CLR01-treated MPS-IIIA brain vs WT
[20] = MPS-IIIA brain lysates, CLR01 vs saline
[21] = MPS-IIIA brain, daily s.c. injection for 4.5 months

SMILES: O=P(O)(O)Oc1c2c(c(OP(=O)(O)O)c3c1C1CC3c3cc4c(cc31)C1CC4c3ccccc31)C1CC2c2cc3c(cc21)C1CC3c2ccccc21 [CLR01]
- number of LC3 dots (both large and normal sized) compared to WT brain (MPS-IIIA mice [1]; [19]): remained significantly higher compared to WT brain
- autophagic flux / autophagy block (MPS-IIIA mice [1]; MPS-IIIA brain, conclusion from LC3 dots): autophagic flux was re-activated; also recorded: able to relief autophagy block
- large LC3 dots (>0.8 μm^2) (MPS-IIIA mice [1]; MPS-IIIA brain, cortical regions, daily s.c. injection for 4.5 months): significantly reduced large LC3 dots
- lysosomal autophagic axis (WT mice [2]): no significant change in lysosomal autophagic axis
- inflammatory response by GFAP and Iba1 IHC (WT mice [3]): did not elicit inflammatory response
- brain targeting / blood-brain barrier crossing [4]: cross the blood-brain barrier
- LC3 staining (WT mice [5]): a significant change in LC3 staining was observed
- LAMP1-positive immunostaining, cerebral cortex (MPS-IIIA mice [6]): markedly reduced LAMP1-positive immunostaining
- lysosome size/number (WT mice [7]): did not affect lysosome size/number
- synaptic abnormalities (synaptic vesicles/synaptic cleft length ratio, TEM) (MPS-IIIA mice [8]): able to rescue synaptic abnormalities
- LAMP1 compartment volume (WT mice [9]): did not modify LAMP1 compartment volume
- UbK63 IHC signal, cerebral cortex (MPS-IIIA mice [10]): significant signal reduction
- neuroinflammatory markers GFAP and IBA1, immunofluorescence (MPS-IIIA mice [11]; 2 months of treatment, at 7 months of age): strong reduction of inflammation
- neuro-inflammation by GFAP and Iba1 IHC, cortex and striatum (MPS-IIIA mice [11]; daily s.c. injection for 4.5 months, 9 months of age): reduction in both inflammatory markers; also recorded: strongly reduced neuro-inflammation
- safety margin [12]: high safety margin
- build-up of amyloid components (α-Synuclein, PrP, Aβ1-42, Tau), proteinase K-resistant (MPS-IIIA mice [13]): efficient inhibition of the build-up of several amyloid components
- LC3-II levels compared to WT (MPS-IIIA mice [14]; [19]): remained significantly higher than WT
- LC3-II protein level (Western blot, normalized to β-actin) (MPS-IIIA mice [14]; [20]): reduction; also recorded: damped down
- p62 protein level (Western blot, normalized to β-actin) (MPS-IIIA mice [14]; [20]): reduction; also recorded: damped down
- protection against protein aggregation and neurodegeneration [15]: very effective in protecting against protein aggregation and neurodegeneration
- thioflavin-positive inclusions / amyloid deposition in brain (MPS-IIIA mice [16]; MPS-IIIA mice, daily s.c. injection for 4.5 months from 4.5 months of age, analysed at 9 months): reduction of amyloid deposition; also recorded: almost complete absence of thioflavin-positive inclusions
- amyloid proteins by Thioflavin S staining (MPS-IIIA mice [16]; asymptomatic MPS-IIIA mice, 1 mg/kg/day s.c. osmotic pump, 2 months from 5 months of age, analysed at 7 months): complete disappearance of amyloid proteins
- amyloid deposits by Thioflavin S staining in different brain regions (MPS-IIIA mice [16]; symptomatic MPS-IIIA mice, 1 mg/kg/day s.c. osmotic pump, 1 month from 6 months of age, analysed at 7 months): partial removal of amyloid deposits
- total number of lysosomes (MPS-IIIA mice [17]; CLR01-treated MPS-IIIA brain vs control MPS-IIIA mice): remained significantly higher than control MPS-IIIA mice
- average lysosomal size (EM) (MPS-IIIA mice [17]; [21]): significant reduction in the average lysosomal size
- number of abnormal-sized lysosomes (>800 nm) (MPS-IIIA mice [17]; [21]): decreased number of abnormal-sized lysosomes
- memory deficit (freezing time, contextual fear conditioning) (MPS-IIIA mice [18]): rescue of memory deficits; also recorded: fully rescued
